Reference: patent US8530667B2, “Herbicides” (Syngenta Limited, priority 2007, dated 2013)

What follows are molecules tested on Setaria faberi (SETFA) (assay: Example B pre-emergence herbicidal activity, glasshouse pot test). Conditions: 312 h, Rate 250 g/ha, evaluated after 13 days, read-out: Pre-Emergence Activity SETFA (100=total damage to plant; 0=no damage to plant).
Format: in vivo
Protocol: (§1) Seeds of a variety of test species were sown in standard soil in pots. After cultivation for one day (pre-emergence) or after 8 days cultivation (post-emergence) under controlled conditions in a glasshouse (at 24/16° C., day/night; 14 hours light; 65% humidity), the plants were sprayed with an aqueous spray solution derived from the formulation of the technical active ingredient in acetone/water (50:50) solution containing 0.5% Tween 20 (polyoxyethelyene sorbitan monolaurate, CAS RN 9005-64-5). The test plants were then grown in a glasshouse under controlled conditions in a glasshouse (at 24/16° C., day/night; 14 hours light; 65% humidity) and watered twice daily. After 13 days for pre and post-emergence, the test was evaluated (100=total damage to plant; 0=no damage to plant). Alopecurus myosuroides (ALOMY), Avena fatua (AVEFA), Setaria faberi (SETFA), Echinochloa crus-galli (ECHCG) and Amaranthus retoflexus (AMARE)
In the case of `CCc1sc(-c2ccc(Cl)cc2Cl)nc1C1C(=O)[C@@H]2[C@H](C1=O)[C@H]1CC[C@@H]2O1` (stereo partly shown) [Compound T45], the pest or weed control at 250 g/ha was 100%. `CCc1sc(-c2cc(F)c(Cl)cc2Cl)nc1C1C(=O)[C@@H]2[C@H](C1=O)[C@H]1CC[C@@H]2O1` (stereo partly shown) [Compound T47] gave a pest or weed control at 250 g/ha of 100%. In the case of `CSc1ccc(-c2nc(C3C(=O)[C@@H]4[C@H](C3=O)[C@H]3CC[C@@H]4O3)c(C)s2)cc1` (stereo partly shown) [Compound T48], the pest or weed control at 250 g/ha was 90%. With `Cc1sc(-c2ccc([S+](C)[O-])cc2)nc1C1C(=O)[C@@H]2[C@H](C1=O)[C@H]1CC[C@@H]2O1` (stereo partly shown) [Compound T49] the pest or weed control at 250 g/ha was 90%.

What follows are molecules tested on Avena fatua (AVEFA) in the same assay as above. Conditions: 312 h, Rate 250 g/ha, evaluated after 13 days, read-out: Pre-Emergence Activity AVEFA (100=total damage to plant; 0=no damage to plant).
Format: in vivo
Protocol: as §1
Molecule `CCc1sc(-c2ccc(Cl)cc2Cl)nc1C1C(=O)[C@@H]2[C@H](C1=O)[C@H]1CC[C@@H]2O1` (stereo partly shown) [Compound T45] has a pest or weed control at 250 g/ha of 60%. `CCc1sc(-c2cc(F)c(Cl)cc2Cl)nc1C1C(=O)[C@@H]2[C@H](C1=O)[C@H]1CC[C@@H]2O1` (stereo partly shown) [Compound T47] was tested, and the pest or weed control at 250 g/ha was 80%. With `CSc1ccc(-c2nc(C3C(=O)[C@@H]4[C@H](C3=O)[C@H]3CC[C@@H]4O3)c(C)s2)cc1` (stereo partly shown) [Compound T48] the pest or weed control at 250 g/ha was 20%. `Cc1sc(-c2ccc([S+](C)[O-])cc2)nc1C1C(=O)[C@@H]2[C@H](C1=O)[C@H]1CC[C@@H]2O1` (stereo partly shown) [Compound T49] showed a pest or weed control at 250 g/ha of 0%.

What follows are molecules tested on Alopecurus myosuroides (ALOMY) in the same assay as above. Conditions: 312 h, Rate 250 g/ha, evaluated after 13 days, read-out: Pre-Emergence Activity ALOMY (100=total damage to plant; 0=no damage to plant).
Format: in vivo
Protocol: as §1
For `CCc1sc(-c2ccc(Cl)cc2Cl)nc1C1C(=O)[C@@H]2[C@H](C1=O)[C@H]1CC[C@@H]2O1` (stereo partly shown) [Compound T45], the pest or weed control at 250 g/ha was 90%. Work on `CCc1sc(-c2cc(F)c(Cl)cc2Cl)nc1C1C(=O)[C@@H]2[C@H](C1=O)[C@H]1CC[C@@H]2O1` (stereo partly shown) [Compound T47] yielded a pest or weed control at 250 g/ha of 90%. With `CSc1ccc(-c2nc(C3C(=O)[C@@H]4[C@H](C3=O)[C@H]3CC[C@@H]4O3)c(C)s2)cc1` (stereo partly shown) [Compound T48] the pest or weed control at 250 g/ha was 40%. With `Cc1sc(-c2ccc([S+](C)[O-])cc2)nc1C1C(=O)[C@@H]2[C@H](C1=O)[C@H]1CC[C@@H]2O1` (stereo partly shown) [Compound T49] the pest or weed control at 250 g/ha was 20%.

Each molecule was assayed on Echinochloa crus-galli (ECHCG) in the same assay as above. Conditions: 312 h, Rate 250 g/ha, evaluated after 13 days, read-out: Pre-Emergence Activity ECHCG (100=total damage to plant; 0=no damage to plant).
Format: in vivo
Protocol: as §1
`CCc1sc(-c2ccc(Cl)cc2Cl)nc1C1C(=O)[C@@H]2[C@H](C1=O)[C@H]1CC[C@@H]2O1` (stereo partly shown) [Compound T45] showed a pest or weed control at 250 g/ha of 100%. For `CCc1sc(-c2cc(F)c(Cl)cc2Cl)nc1C1C(=O)[C@@H]2[C@H](C1=O)[C@H]1CC[C@@H]2O1` (stereo partly shown) [Compound T47], the pest or weed control at 250 g/ha was 90%. For `CSc1ccc(-c2nc(C3C(=O)[C@@H]4[C@H](C3=O)[C@H]3CC[C@@H]4O3)c(C)s2)cc1` (stereo partly shown) [Compound T48], the pest or weed control at 250 g/ha was 70%. Work on `Cc1sc(-c2ccc([S+](C)[O-])cc2)nc1C1C(=O)[C@@H]2[C@H](C1=O)[C@H]1CC[C@@H]2O1` (stereo partly shown) [Compound T49] yielded a pest or weed control at 250 g/ha of 70%.

These molecules were tested on Amaranthus retoflexus (AMARE) in the same assay as above. Conditions: Amaranthus retroflexus, 312 h, Rate 250 g/ha, evaluated after 13 days, read-out: Pre-Emergence Activity AMARE (100=total damage to plant; 0=no damage to plant).
Format: in vivo
Protocol: as §1
For `CCc1sc(-c2ccc(Cl)cc2Cl)nc1C1C(=O)[C@@H]2[C@H](C1=O)[C@H]1CC[C@@H]2O1` (stereo partly shown) [Compound T45], the pest or weed control at 250 g/ha was 0%. `CCc1sc(-c2cc(F)c(Cl)cc2Cl)nc1C1C(=O)[C@@H]2[C@H](C1=O)[C@H]1CC[C@@H]2O1` (stereo partly shown) [Compound T47] showed a pest or weed control at 250 g/ha of 0%. `CSc1ccc(-c2nc(C3C(=O)[C@@H]4[C@H](C3=O)[C@H]3CC[C@@H]4O3)c(C)s2)cc1` (stereo partly shown) [Compound T48] showed a pest or weed control at 250 g/ha of 0%. `Cc1sc(-c2ccc([S+](C)[O-])cc2)nc1C1C(=O)[C@@H]2[C@H](C1=O)[C@H]1CC[C@@H]2O1` (stereo partly shown) [Compound T49] showed a pest or weed control at 250 g/ha of 0%.

These molecules were tested on Setaria faberi (SETFA) (assay: Example B post-emergence herbicidal activity, glasshouse pot test). Conditions: 312 h, rate 250 g/ha, evaluated after 13 days, read-out: Post-emergence activity SETFA (100=total damage to plant; 0=no damage to plant).
Format: in vivo
Protocol: as §1
In the case of `CCc1sc(-c2ccc(Cl)cc2Cl)nc1C1C(=O)[C@@H]2[C@H](C1=O)[C@H]1CC[C@@H]2O1` (stereo partly shown) [Compound T45], the pest or weed control at 250 g/ha was 100%. `CCc1sc(-c2cc(F)c(Cl)cc2Cl)nc1C1C(=O)[C@@H]2[C@H](C1=O)[C@H]1CC[C@@H]2O1` (stereo partly shown) [Compound T47] was tested, and the pest or weed control at 250 g/ha was 100%. `CSc1ccc(-c2nc(C3C(=O)[C@@H]4[C@H](C3=O)[C@H]3CC[C@@H]4O3)c(C)s2)cc1` (stereo partly shown) [Compound T48] gave a pest or weed control at 250 g/ha of 90%. Molecule `Cc1sc(-c2ccc([S+](C)[O-])cc2)nc1C1C(=O)[C@@H]2[C@H](C1=O)[C@H]1CC[C@@H]2O1` (stereo partly shown) [Compound T49] has a pest or weed control at 250 g/ha of 90%.

What follows are molecules tested on Avena fatua (AVEFA) in the same assay as above. Conditions: 312 h, rate 250 g/ha, evaluated after 13 days, read-out: Post-emergence activity AVEFA (100=total damage to plant; 0=no damage to plant).
Format: in vivo
Protocol: as §1
For `CCc1sc(-c2ccc(Cl)cc2Cl)nc1C1C(=O)[C@@H]2[C@H](C1=O)[C@H]1CC[C@@H]2O1` (stereo partly shown) [Compound T45], the pest or weed control at 250 g/ha was 100%. For `CCc1sc(-c2cc(F)c(Cl)cc2Cl)nc1C1C(=O)[C@@H]2[C@H](C1=O)[C@H]1CC[C@@H]2O1` (stereo partly shown) [Compound T47], the pest or weed control at 250 g/ha was 100%. In the case of `CSc1ccc(-c2nc(C3C(=O)[C@@H]4[C@H](C3=O)[C@H]3CC[C@@H]4O3)c(C)s2)cc1` (stereo partly shown) [Compound T48], the pest or weed control at 250 g/ha was 40%. Molecule `Cc1sc(-c2ccc([S+](C)[O-])cc2)nc1C1C(=O)[C@@H]2[C@H](C1=O)[C@H]1CC[C@@H]2O1` (stereo partly shown) [Compound T49] has a pest or weed control at 250 g/ha of 30%.

What follows are molecules tested on Alopecurus myosuroides (ALOMY) in the same assay as above. Conditions: 312 h, rate 250 g/ha, evaluated after 13 days, read-out: Post-emergence activity ALOMY (100=total damage to plant; 0=no damage to plant).
Format: in vivo
Protocol: as §1
`CCc1sc(-c2ccc(Cl)cc2Cl)nc1C1C(=O)[C@@H]2[C@H](C1=O)[C@H]1CC[C@@H]2O1` (stereo partly shown) [Compound T45] was tested, and the pest or weed control at 250 g/ha was 100%. For `CCc1sc(-c2cc(F)c(Cl)cc2Cl)nc1C1C(=O)[C@@H]2[C@H](C1=O)[C@H]1CC[C@@H]2O1` (stereo partly shown) [Compound T47], the pest or weed control at 250 g/ha was 100%. Molecule `CSc1ccc(-c2nc(C3C(=O)[C@@H]4[C@H](C3=O)[C@H]3CC[C@@H]4O3)c(C)s2)cc1` (stereo partly shown) [Compound T48] has a pest or weed control at 250 g/ha of 60%. `Cc1sc(-c2ccc([S+](C)[O-])cc2)nc1C1C(=O)[C@@H]2[C@H](C1=O)[C@H]1CC[C@@H]2O1` (stereo partly shown) [Compound T49] showed a pest or weed control at 250 g/ha of 50%.

Each molecule was assayed on Echinochloa crus-galli (ECHCG) in the same assay as above. Conditions: 312 h, rate 250 g/ha, evaluated after 13 days, read-out: Post-emergence activity ECHCG (100=total damage to plant; 0=no damage to plant).
Format: in vivo
Protocol: as §1
With `CCc1sc(-c2ccc(Cl)cc2Cl)nc1C1C(=O)[C@@H]2[C@H](C1=O)[C@H]1CC[C@@H]2O1` (stereo partly shown) [Compound T45] the pest or weed control at 250 g/ha was 100%. With `CCc1sc(-c2cc(F)c(Cl)cc2Cl)nc1C1C(=O)[C@@H]2[C@H](C1=O)[C@H]1CC[C@@H]2O1` (stereo partly shown) [Compound T47] the pest or weed control at 250 g/ha was 100%. Work on `CSc1ccc(-c2nc(C3C(=O)[C@@H]4[C@H](C3=O)[C@H]3CC[C@@H]4O3)c(C)s2)cc1` (stereo partly shown) [Compound T48] yielded a pest or weed control at 250 g/ha of 100%. With `Cc1sc(-c2ccc([S+](C)[O-])cc2)nc1C1C(=O)[C@@H]2[C@H](C1=O)[C@H]1CC[C@@H]2O1` (stereo partly shown) [Compound T49] the pest or weed control at 250 g/ha was 100%.

Each molecule was assayed on Amaranthus retoflexus (AMARE) in the same assay as above. Conditions: Amaranthus retroflexus, 312 h, rate 250 g/ha, evaluated after 13 days, read-out: Post-emergence activity AMARE (100=total damage to plant; 0=no damage to plant).
Format: in vivo
Protocol: as §1
For `CCc1sc(-c2ccc(Cl)cc2Cl)nc1C1C(=O)[C@@H]2[C@H](C1=O)[C@H]1CC[C@@H]2O1` (stereo partly shown) [Compound T45], the pest or weed control at 250 g/ha was 0%. `CCc1sc(-c2cc(F)c(Cl)cc2Cl)nc1C1C(=O)[C@@H]2[C@H](C1=O)[C@H]1CC[C@@H]2O1` (stereo partly shown) [Compound T47] gave a pest or weed control at 250 g/ha of 0%. Molecule `CSc1ccc(-c2nc(C3C(=O)[C@@H]4[C@H](C3=O)[C@H]3CC[C@@H]4O3)c(C)s2)cc1` (stereo partly shown) [Compound T48] has a pest or weed control at 250 g/ha of 40%. For `Cc1sc(-c2ccc([S+](C)[O-])cc2)nc1C1C(=O)[C@@H]2[C@H](C1=O)[C@H]1CC[C@@H]2O1` (stereo partly shown) [Compound T49], the pest or weed control at 250 g/ha was 0%.
